Laboratory results reported in article PMC5050145 (European journal of nuclear medicine and molecular imaging, 2016).
“And” between values parts separate entries of the source, which are not always exact repeats. Equal entries are not always repeated.

Tests used:
[1] = In-vitro stability in mouse blood plasma; type: in vitro ADME; conditions: 2 h, 37 °C
[2] = Biodistribution by microPET/CT imaging in C57BL6 mice; type: in vivo; conditions: 1 h post-injection, microPET
[3] = Dosimetry: mouse microPET biodistribution extrapolated to humans; type: in vivo, C57BL6 mice; conditions: for effective dose: administered activity of 200 MBq
[4] = Stability of the final product in formulation; type: physicochemical; conditions: 3 h; buffered solution at pH 6.8
[5] = In-vitro stability in human blood plasma; type: in vitro ADME; conditions: 2 h, 37 °C
[6] = tested on: LNCaP cells; conditions: complexed to natGa; cited from earlier work
[7] = target: PSMA; conditions: read-out: Ki value towards PSMA; complexed to natGa; cell-based assay; cited from earlier work

Row | Structure (SMILES) | intact compound [1] | tissue uptake, bladder [2] | tissue uptake, kidneys [2] | Mean RT (time-integrated activity coefficient) scaled to humans ([3]; Bone, Method 1) | Mean RT (time-integrated activity coefficient) scaled to humans ([3]; Bone, Method 2) | mean extrapolated effective dose per unit activity ([3]; Method 1) | effective dose ([3]; Method 1) | effective dose ([3]; Method 2) | maximum administered human activity limit ([3]; Method 2, kidneys dose-limiting, 21CFR361.1) | Mean RT (time-integrated activity coefficient) scaled to humans ([3]; Muscle, Method 2) | Mean RT (time-integrated activity coefficient) scaled to humans ([3]; Tot. Kidney, Method 1) | Mean RT (time-integrated activity coefficient) scaled to humans ([3]; Tot. Kidney, Method 2) | feasible injected activities ([3]; most stringent dosimetric calculations) | mean extrapolated effective dose per unit activity ([3]; second value, printed Method 1) | radiochemical purity in stability test [4] | intact compound [5] | uptake in PSMA-positive LNCaP cells [6] | Ki [7]
1 | O=C([O-])CN(CCN(CC(=O)[O-])Cc1cc(CCC(=O)NCCCCCC(=O)NCCCC[C@H](NC(=O)N[C@@H](CCC(=O)O)C(=O)O)C(=O)O)ccc1O)Cc1cc(CCC(=O)O)ccc1O.[18F-].[Al+3] [18F-PSMA-11] | 91% | 77.4 ± 39.1 %ID/g | 119.3 ± 16.5 %ID/g | 0.045 ± 0.013 h | 0.114 ± 0.028 h | 8.59 × 10^−3 ± 7.46 × 10^−4 mSv/MBq | 1.72 mSv and 1.7 mSv | 1.25 mSv | 1,742 MBq | 0.077 ± 0.018 h | 0.141 ± 0.033 h | 0.042 ± 0.009 h | up to 0.56 GBq | 6.23 × 10^−3 ± 5.74 × 10^−4 mSv/MBq | > 97% | 94% | – | –
2 | O=C(O)CCc1ccc(O)c(CN(CCN(CC(=O)O)Cc2cc(CCC(=O)NCCCCCC(=O)NCCCC[C@H](NC(=O)N[C@@H](CCC(=O)O)C(=O)O)C(=O)O)ccc2O)CC(=O)O)c1 [PSMA-11, Glu-urea-Lys (Ahx)-HBED-CC] | – | – | – | – | – | – | – | – | – | – | – | – | – | – | – | – | readily taken up | 0.012 ± 0.0028 µM
